Measured values as given in US5461057A, “Hydro-ethano-indeno-pyridines” (priority 1994, dated 1995).

Legend:
[1] = test system: PDGF-BB-stimulated mitogenesis of bovine smooth muscle cells; experiment: Smooth muscle cell mitogenesis test; type: cell-based
Procedure: The procedure for the Smooth Muscle Cell Mitogenesis test is given just below. The fibronectin adhesion inhibitor, compound B, was tested for inhibitory effects on PDGF (Platelet Derived Growth Factor) BB-stimulated mitogenesis of bovine smooth muscle cells. Cells were exposed to PDGF with and without compound B in 24-well plates for 16 hours.

[2] = test system: TBZ-induced ptosis; experiment: Effects on tetrabenazine (TBZ)-induced ptosis in mice; type: in vivo, mouse; details: Mus musculus, po
Source text: Clinically active antidepressant drugs are known to block TBZ-induced ptosis in mice (See Psychosomatic Medicine, Nodine and Moyer, Eds. Lea and Febiger, Philadelphia, 1962, pp 683-90, which is hereby incorporated by reference). Activity in this test is used to predict anti-depressant activity in man.
The procedure for the TBZ-Induced Ptosis Test in Mice is set forth in Psychosomatic Medicine, Nodine and Moyer, Eds. Lea and Febiger, which is hereby incorporated by reference and in PCT/US91/06705, filed 20 Sep. 1991, which is mentioned above.
The results for this test are given below as ED50 's in the units of mg/kg.
TBZ refers to the test of effects on tetrabenazine induced ptosis in mice, p.o.;

[3] = test system: methamphetamine toxicity; experiment: Methamphetamine toxicity test in mice; type: in vivo; details: Mus musculus, read-out: METHA ED50
Procedure: The methamphetamine toxicity test in mice was carried out as described in Burn et al, Arch. Int. Pharmacodyn 113:290-295, (1958); and Coscia et al, Arzneim-Forsch (Drug Research) 25:1436-1442, (1975); which are hereby incorporated by reference.
The results for this test are given below as ED50's in the units of mg/kg.
METHA refers to the methamphetamine toxicity test in mice;

In the case of `COc1ccc(C2=C3CC4CCC(N4)C3c3ccccc32)cc1` (centres unmarked) [Compound B], the “3H-Thymidine Incorporation (dpm/1000 ± S.E.M.)” value (“3H-Thymidine Incorporation” below) ([1]; 0.1 μM + 1 ng/ml PDGF-BB) is reported as 406.8 ± 30.2 dpm/1000, the “3H-Thymidine Incorporation” value ([1]; 0.3 μM + 1 ng/ml PDGF-BB) is reported as 347.7 ± 9.8 dpm/1000 and the “3H-Thymidine Incorporation” value ([1]; 1 μM + 1 ng/ml PDGF-BB) is reported as 156.3 ± 7.2 dpm/1000. For the same molecule, the “3H-Thymidine Incorporation” value ([1]; 3 μM + 1 ng/ml PDGF-BB) was 17.0 ± 1.9 dpm/1000, the cell detachment ([1]; 10 μM) was “caused cells to detach from the plate” and the “3H-Thymidine Incorporation” value ([1]; 10 μM + 1 ng/ml PDGF-BB) was 7.3 ± 5.3 dpm/1000. For the same molecule, the inhibition at 0.1 µM ([1]; Bos taurus, 0.1 μM + 1 ng/ml PDGF-BB) was -2.7%, the inhibition at 0.3 µM ([1]; Bos taurus, 0.3 μM + 1 ng/ml PDGF-BB) was 18.5% and the inhibition at 1 µM ([1]; Bos taurus, 1 μM + 1 ng/ml PDGF-BB) was 87.1%. It also gave an inhibition at 3 µM ([1]; Bos taurus, 3 μM + 1 ng/ml PDGF-BB) of 137%, an inhibition at 10 µM ([1]; Bos taurus, 10 μM + 1 ng/ml PDGF-BB) of 140% and an IC50 ([1]; Bos taurus, 16 hours, read-out: inhibition of PDGF-stimulated mitogenesis IC50) of 520 nM. The ED50 [2] was 12 mg/kg and the ED50 [3] was > 30 mg/kg.
